Data as given in US12534762B2, “Treating atopic dermatitis by targeting the WNT pathway” (Children's Medical Center Corporation, priority 2018, dated 2026).
Entries after “also recorded” stand apart in the source; their conditions may differ. Peptide text beside a SMILES is read from it. * marks the point of attachment. Cbz = O=C(OCc1ccccc1)*

Experiments:
[1] = test system: ma/ma mice; assay: Topical LGK974 cream on Tmem79 ma/ma mice, AD phenotypes; assay type: in vivo, mouse; details: topical cream twice daily, dose to be determined empirically
From the text: PORCUPINE (PORCN) is an ER acyl-transferase specifically required for biogenesis and secretion of all WNT proteins. A diverse group of small molecules, referred to as IWP2, LGK974, and C59, each binds to and inhibits PORCN, thereby blocking WNT production. LGK974 and C59 are in phase I clinical trials for cancers that rely on autocrine or local WNT production (Proffitt, K. D., et al., Cancer Res, 2013, 73 (2): p. 502-7; Jiang, X., et al., Proc Natl Acad Sci USA, 2013. 110 (31): p. 12649-54). […] 111 (6): p. 2325-30; Apelian, H. M. C., NJ), Coffin-beach, David (Kendall Park, NJ), Huq, Abu S. (Plainsboro, NJ), Pharmaceutical composition of florfenicol, in U.S. Pat. No. 5,082,862, S. Corporation, January 1992; Malook, S. U. N., GB5), Boon, Peter F. G. (Horsham, GB2), Morgan, James P. (Navan, IE), Method of reducing the swelling or pain associated with antibiotics compositions, in U.S. Pat. No. 4,772,460, L. Bimeda Research and Development, September 1988.). […]
ma ma mice in C57BL/6 have been used as a reliable model for human AD and will be housed under the SPF (specific pathogen-free) conditions at BCH, and analyzed at 2, 4, and 8 weeks for skin phenotypes as described (Sasaki, T., et al., J Allergy Clin Immunol, 132 (5): p. 1111-1120 e4, 2013; Saunders, S. P., et al., J Allergy Clin Immunol, 132 (5): p. 1121-9, 2013). […]

[2] = test system: Wnt/β-catenin signaling; assay: Top-Flash dual luciferase reporter assay; assay type: cell-based, human; details: HEK293T cells
Experimental: (§1) Cell culture, immunofluorescence, RNA interference and dual luciferase assay. HEK293T cells (ATCC #CRL-11268) and its derivatives were maintained in DMEM supplemented with 10% FBS, penicillin, and streptomycin. ZRKO (ZNRF3 and RNF43 double knockout) cell line was a gift from F. Cong. The FZD null cell line (Fz1-10 knockout) was a gift from B. Vanhollebeke. For immunofluorescence, HEK293T cells were grown on poly-L-lysine-coated glass coverslips. Cells were transfected with Snap-FZD5 and after 24 hours washed with PBS and fixed with 4% paraformaldehyde for 10 min at room temperature. The cells were labeled with 1 μM SNAP-Surface® 488 (BioLabs) for 15 min at room temperature. To visualize endogenous TMEM79, PDI, TGN46 and EEA1, cells were permeabilized with 0.2% Triton X-100 in PBS for 5 min, blocked with 10% normal goat serum and then incubated with respective antibodies for 1 hour at room temperature followed by incubation with secondary antibodies (Alexa Fluor 594 goat anti-rabbit immunoglobulin and Alexa Fluor 488 goat anti-mouse immunoglobulin, Invitrogen). Cells were mounted in Prolong Diamond Antifade Mountant with DAPI (Thermofisher Scientific) and imaged using a Zeiss LSM700 confocal microscope. siRNA transfection was done using Lipofectamine RNAiMAX (Thermofisher Scientific, #13778075). Duplex siRNAs targeting TMEM79 and ZNRF3 were purchased from Sigma. […]

[3] = test system: β-catenin; assay: Immunoblot of cytosolic β-catenin after siRNA depletion of TMEM79 or ZNRF3; assay type: cell-based, human; details: HEK293T cells
Experimental: as §1

[4] = test system: phosphorylated LRP6 and phosphorylated DVL; assay: Immunoblot of phosphorylated LRP6 and DVL2 in T79KO and ZRKO cells; assay type: cell-based, human
Experimental: as §1

[5] = test system: FZD5; assay: Immunoblot of FZD5 (immature and mature forms) with lysosome/proteasome inhibitors; assay type: cell-based, human; details: HEK293T cells; for levels of immature and mature forms of FZD5: absence or presence of TMEM79; for TMEM79-induced degradation of immature FZD5: TMEM79 overexpressed
Experimental: Cell culture, immunofluorescence, RNA interference and dual luciferase assay. HEK293T cells (ATCC #CRL-11268) and its derivatives were maintained in DMEM supplemented with 10% FBS, penicillin, and streptomycin. ZRKO (ZNRF3 and RNF43 double knockout) cell line was a gift from F. Cong. The FZD null cell line (Fz1-10 knockout) was a gift from B. Vanhollebeke. For immunofluorescence, HEK293T cells were grown on poly-L-lysine-coated glass coverslips. Cells were transfected with Snap-FZD5 and after 24 hours washed with PBS and fixed with 4% paraformaldehyde for 10 min at room temperature. The cells were labeled with 1 μM SNAP-Surface® 488 (BioLabs) for 15 min at room temperature. To visualize endogenous TMEM79, PDI, TGN46 and EEA1, cells were permeabilized with 0.2% Triton X-100 in PBS for 5 min, blocked with 10% normal goat serum and then incubated with respective antibodies for 1 hour at room temperature followed by incubation with secondary antibodies (Alexa Fluor 594 goat anti-rabbit immunoglobulin and Alexa Fluor 488 goat anti-mouse immunoglobulin, Invitrogen). Cells were mounted in Prolong Diamond Antifade Mountant with DAPI (Thermofisher Scientific) and imaged using a Zeiss LSM700 confocal microscope. siRNA transfection was done using Lipofectamine RNAiMAX (Thermofisher Scientific, #13778075). Duplex siRNAs targeting TMEM79 and ZNRF3 were purchased from Sigma. The sequences are as follows: TMEM79-1, 5-[…]dTdT-3 (SEQ ID NO: 19), TMEM79-2, 5-CCAUGAGUUCCCGCCUGAUdTdT-3 (SEQ ID NO: 20). ZNRF3, 5-[…]dTdT-3 (SEQ ID NO: 21). For Top-Flash reporter assay, cells were transduced sequentially with Supertopflash (7TFP, Addgene) and EF1α-Renilla lentiviruses. Cells were plated in 24 well plates and transfected the following day in triplicate using FuGENE HD (Promega, #E2312). Dual luciferase reporter assays were performed using Dual-Luciferase® Reporter Assay System (Promega, #E1960) according to manufacturer's instruction. Representative results are shown from one of three (or more) independent experiments. Immunoblotting, cell surface protein labeling and immunoprecipitation. Total cell lysates in NP40 lysis buffer (50 mM Tris, pH 7.5, 150 mM NaCl, 1 mM EDTA, 1% NP40, 10% glycerol, 10 mM NaF, and protease inhibitor cocktail, pH=7.4) were prepared by gentle rotating at 4° C., followed by centrifugation at top speed for 10 min at 4° C. Samples were run on a SDS-PAGE and transferred to Immobilon-P membrane. To isolate the cytoplasmic fraction of β-catenin, cells were incubated with 0.015% digitonin (in PBS supplemented protease inhibitor cocktail) by gentle rotating at 4° C. for 10 min. Indirect immunochemistry using a secondary antibody conjugated with horseradish peroxidase was visualized using ECL reagents on LAS-4000 imager (FujiFilm). Cell surface proteins were biotinylated using EZ-LinkTMSulfo-NHS—SS-Biotin (Thermo Fisher Scientific) according to manufacturer's protocol. Biotinylated proteins were enriched by Pierce® Streptavidin agarose resins. For immunoprecipitation, transfected HEK293T cells were lysed in NP40 lysis buffer. Cell lysates were incubated with antibody conjugated Agarose beads (Pierce™ Anti-c-Myc Agarose, #20168; Pierce™ Anti-HA Agarose, #26181; Anti-Flag M2 affinity gel, Sigma, A2220; Anti-V5 Agarose Affinity Gel, Sigma, A7345) at 4° C. over night. Beads were washed with lysis buffer 5 times and proteins were eluted in 2× sample buffer.

SMILES: Cc1cc(-c2ncc(CC(=O)Nc3ccc(-c4cnccn4)cn3)cc2C)ccn1 [LG974]
- AD phenotypes of ma mice [1]: ameliorated

SMILES: Cc1ccc2nc(NC(=O)CSc3nc4c(c(=O)n3-c3ccccc3)SCC4)sc2c1 [IWP-2]
- TOP-Flash reporter induction by USP8C ([2]; USP8C transfected): abolished; also recorded: inhibited
- elevated levels of TOP-Flash caused by depletion of TMEM79 or ZNRF3 ([2]; siRNA depletion): abolished; also recorded: suppressed
- elevated levels of β-catenin protein caused by depletion of TMEM79 or ZNRF3 [3]: prevented; also recorded: suppressed
- elevated levels of phosphorylated LRP6 and phosphorylated DVL [4]: inhibited; also recorded: suppressed

SMILES: CC(C)C[C@@H](C=O)NC(=O)[C@H](CC(C)C)NC(=O)[C@H](CC(C)C)NC(=O)OCc1ccccc1 [MG132] (Cbz-Leu-Leu-Leu-aldehyde)
- levels of immature and mature forms of FZD5 [5]: did not affect

SMILES: CO/C1=C\C(C)=C\[C@@H](C)[C@@H](O)[C@@H](C)C/C(C)=C/C=C/[C@H](OC)[C@@H]([C@@H](C)[C@@H](O)[C@H](C)[C@@]2(O)C[C@@H](O)[C@H](C)[C@@H](C(C)C)O2)OC1=O [Bafilomycin A1]
- TMEM79-induced lysosomal degradation of FZD5 [5]: prevented
- TMEM79-induced degradation of immature FZD5 [5]: inhibited
- TMEM79-induced degradation of immature FZD5 ([5]; listed as Baf A1): blocked
- levels of immature and mature forms of FZD5 [5]: elevated levels
- levels of immature and mature forms of FZD5 ([5]; listed as BAF A1): increased
